Values of other authors in patent US20240207240A1, “Method for Improving or Treating Cognitive Dysfunction Complicating HIV-associated Cryptococcal Meningitis with Lenalidomide” (The First Affiliated Hospital Zhejiang University School of …, priority 2022, published 2024).

Tests used:
[1] = cited from earlier work
[2] = in vivo; cited from earlier work

SMILES | bioavailability [1] | side effects [2]
Nc1cccc2c1C(=O)N(C1CCC(=O)NC1=O)C2=O (stereo not drawn) [pomalidomide] | high | 
O=C1CCC(N2C(=O)c3ccccc3C2=O)C(=O)N1 (stereo not drawn) [thalidomide] | high | bone marrow suppression, cardiotoxicity, vascular thrombosis, and neurotoxicity
